Results from patent US5922697A, “Compounds, compositions and methods for inhibiting the binding of proteins containing an SH2 domain to cognate phosphorylated proteins” (Warner-Lambert Company, priority 1998, dated 1999).
Read-outs that look alike come from different tables or passages of the source.

Legend:
Abl SH2 = target: T1, Abl SH2 (Homo sapiens, UniProt P00519); assay: Inhibition of 125I-phosphopeptide binding to immobilized Abl SH2
T1 construct: glutathione-S-transferase(GST)-Abl SH2 fusion protein
T1 sequence (P00519 127-217 limits assumed): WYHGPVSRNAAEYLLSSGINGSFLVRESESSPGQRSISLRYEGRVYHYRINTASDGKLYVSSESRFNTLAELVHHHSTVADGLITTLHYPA
Description: The binding affinities of compounds of the present invention to Abl SH2 was determined using a competitive radiolabeled phosphopeptide displacement assay. […] Binding was performed at room temperature for 20 minutes while continuously inverting the plate.

Src SH2 = target: T2, Src SH2 (Homo sapiens, UniProt P12931); assay: Inhibition of 125I-phosphopeptide binding to immobilized Src SH2; details: competitive 125I-phosphopeptide displacement, GST-Src SH2 fusion protein, pH 7.5, room temperature, 20 minutes
T2 construct: glutathione-S-transferase(GST)-Src SH2 fusion protein
T2 sequence (P12931 151-248 limits assumed): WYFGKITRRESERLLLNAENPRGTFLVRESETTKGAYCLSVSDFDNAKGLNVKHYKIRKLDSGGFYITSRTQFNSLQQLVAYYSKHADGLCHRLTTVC
Description: The binding affinities of compounds of the present invention to Src SH2 was determined using a competitive radiolabeled phosphopeptide displacement assay.
Binding was performed at room temperature for 20 minutes while continuously inverting the plate. […] Results are expressed as IC50 values in Table 1 below.

[1] = IC50, Abl SH2 Binding, competitive 125I-phosphopeptide displacement, GST-Abl SH2 fusion protein, pH 7.5, room temperature, 20 minutes
[2] = competitive 125I-phosphopeptide displacement, GST-Abl SH2 fusion protein, pH 7.5, room temperature, 20 minutes; read-out: IC50, Abl SH2 Binding
[3] = read-out: IC50, SRC SH2 Binding

Compound | IC50 (Abl SH2; [1]) [µM] | IC50 (Src SH2; IC50, SRC SH2 Binding) [µM] | also measured
CC(=O)N[C@@H](Cc1ccc(OP(=O)(O)O)cc1)C(=O)NC(C)c1ccc(OCC2CCCCC2)c(CC(N)=O)c1 (mixture of isomers) [Example 65, (S)-Phosphoric acid mono-(4-{2-acetylamino-2-[(RS)-1-(3-carbamoylmethyl-4-cyclohexylmethoxy-phenyl)-ethylcarbamoyl]-ethyl}-phenyl) ester] | 24 | 9.2 | –
CC(=O)N[C@@H](Cc1ccc(OP(=O)(O)O)cc1)C(=O)NCc1ccc(OC(C)CC2CCCCC2)c(C(N)=O)c1 (mixture of isomers) [Example 66, Phosphoric acid mono-(4-{(S)-2-acetylamino-2-[3-carbamoyl-4-(2-cyclohexyl-(RS)-1-methyl-ethoxy)-benzylcarbamoyl]-ethyl}-phenyl) ester] | 11 | 3.8 | –
CC(=O)N[C@@H](Cc1ccc(OP(=O)(O)O)cc1)C(=O)NC(Cc1ccccc1)c1ccc(OCC2CCCCC2)c(C(N)=O)c1 (mixture of isomers) [Example 67, Phosphoric acid mono-(4{(S)-2-acetylamino-2-[(RS)-1-(3-carbamoyl-4-cyclohexylmethoxy-phenyl)-2-phenyl-ethylcarbamoyl]-ethyl}-phenyl) ester] | 6 | 1 | –
CC(=O)N[C@@H](Cc1ccc(OP(=O)(O)O)cc1)C(=O)NC(C)c1ccc(OCc2cc(C)cc(C)c2)c(C(N)=O)c1 (mixture of isomers) [Example 68, Phosphoric acid mono-[4-((S)-2-acetylamino-2-{(RS)-1-[3-carbamoyl-4-(3,5-dimethyl-benzyloxy)-phenyl]-ethylcarbamoyl}-ethyl)-phenyl] ester] | 5.7 | 1.1 | –
CCCC(NC(=O)[C@H](Cc1ccc(OP(=O)(O)O)cc1)NC(C)=O)c1ccc(OCC2CCCCC2)c(C(N)=O)c1 (mixture of isomers) [Example 69, Phosphoric acid mono-(4-{(S)-2-acetylamino-2-[(RS)-1-(3-carbamoyl-4-cyclohexylmethoxy-phenyl)-butylcarbamoyl]-ethyl}-phenyl) ester] | 7.4 | 2.1 | –
CC(=O)N[C@@H](Cc1ccc(P(=O)(O)O)cc1)C(=O)NC(C)c1ccc(OCC2CCCCC2)c(C(N)=O)c1 (mixture of isomers) [Example 73, (4-{(S)-2-Acetylamino-2-[(RS)-1-(3-carbamoyl-4-cyclohexylmethoxy-phenyl)-ethylcarbamoyl]-ethyl}-phenyl)-phosphonic acid] | – | – | IC50 (Abl SH2; [2]): 26 µM; IC50 (Src SH2; [3]): 8.6 µM
CC(NC(=O)Nc1cccc2cc(OP(=O)(O)O)ccc12)c1ccc(OCC2CCCCC2)c(C(N)=O)c1 (racemic) [Example 75, (+/-)-Phosphoric acid mono-(5-{3-[1-(3-carbamoyl-4-cyclohexylmethoxy-phenyl)-ethyl]-ureido}-naphthalen-2-yl) ester] | ~60 | 7.2 | –
CC(=O)N[C@@H](Cc1ccc(C(F)(F)P(=O)(O)O)cc1)C(=O)NC(C)c1ccc(OCC2CCCCC2)c(C(N)=O)c1 (single isomer, unassigned) [Example 63b, [S-(R*,R*)]- or [S-(R*,S*)]-[(4-{2-Acetylamino-2-[1-(3-carbamoyl-4-cyclohexylmethoxy-phenyl)-ethylcarbamoyl]-ethyl}-phenyl)-difluoro-methyl]-phosphonic acid] | – | – | IC50 (Abl SH2; [2]): 59 µM; IC50 (Src SH2; [3]): 29 µM
CC(=O)N[C@@H](Cc1ccc(OP(=O)(O)O)cc1)C(=O)NC(C)c1ccc(OC(C)CC2CCCCC2)c(C(N)=O)c1 (single isomer, unassigned) [Example 64a, Phosphoric acid mono-[4-(2-acetylamino-2-{1-[3-carbamoyl-4-(2-cyclohexyl-1-methyl-ethoxy)-phenyl]-ethylcarbamoyl]-ethyl)-phenyl] ester] | 2.4 | 0.6 | –
CC(=O)N[C@@H](Cc1ccc(OP(=O)(O)O)cc1)C(=O)NC(C)c1ccc(OC(C)CC2CCCCC2)c(C(N)=O)c1 (single isomer, unassigned) [Example 64b, Phosphoric acid mono-[4-(2-acetylamino-2-{1-[3-carbamoyl-4-(2-cyclohexyl-1-methyl-ethoxy)-phenyl]-ethylcarbamoyl}-ethyl)-phenyl] ester] | 14 | 11 | –
CC(=O)N[C@@H](Cc1ccc(OP(=O)(O)O)cc1)C(=O)N[C@@H](CCC(=O)O)C(=O)N1CCC[C@@H]1CCc1ccccc1 [Example 11, 4-[(S)-2-Acetylamino-3-(4-phosphonooxy-phenyl)-(S)-propionylamino]-5-oxo-5-((S)-2-phenethyl-pyrrolidin-1-yl)-pentanoic acid] | – | – | IC50 (Abl SH2; [2]): 17 µM; IC50 (Src SH2; [3]): 2.1 µM
CC(=O)N[C@@H](Cc1ccc(OP(=O)(O)O)cc1)C(=O)N[C@@H](CCC(=O)O)C(=O)N1CCC[C@@H]1CCC1CCCCC1 [Example 12, 4-[(S)-2-Acetylamino-3-(4-phosphonooxy-phenyl)-(S)-propionylamino]-5-[2-((S)-2-cyclohexyl-ethyl)-pyrrolidin-1-yl]-5-oxo-pentanoic acid] | – | – | IC50 (Abl SH2; [2]): 2.5 µM; IC50 (Src SH2; [3]): 0.7 µM
CC(=O)N[C@@H](Cc1ccc(OP(=O)(O)O)cc1)C(=O)N[C@@H](CCC(=O)O)C(=O)NCCCc1cccc(OCC(N)=O)c1 [Example 24, [S-(R*,R*)]-4-[2-Acetylamino-3-(4-phosphonooxy-phenyl)-propionylamino]-4-[3-(3-carbamoylmethoxy-phenyl)-propylcarbamoyl]-butyric acid] | 36 | 7.2 | –
CN(CCCC1CCCCC1)C(=O)[C@H](CCC(=O)O)NC(=O)N(CC(=O)O)Cc1ccc(OP(=O)(O)O)cc1 [Example 35, (S)-4-[3-carboxymethyl-3-(4-phosphonooxy-benzyl)-ureido]-4-[(3-cyclohexyl-propyl)-methyl-carbamoyl]-butyric acid] | – | – | IC50 (Abl SH2; read-out: IC50, Abl SH2 Binding; competitive 125I-phosphopeptide displacement, GST-Abl SH2 fusion protein, pH 7.5, room temperature, 20 minutes): > 100 µM
NC(=O)c1cc(CNC(=O)c2ccc(OP(=O)(O)O)cc2)ccc1OCC1CCCCC1 [Example 44, Phosphoric acid mono-[4-(3-carbamoyl-4-cyclohexyl-methoxy-benzylcarbamoyl)-phenyl] ester] | – | – | IC50 (Src SH2; [3]): 6.5 µM
NC(=O)c1cc(CNC(=O)c2ccc(C(F)(F)P(=O)(O)O)cc2)ccc1OCC1CCCCC1 [Example 45, [4-(3-Carbamoyl-4-cyclohexylmethoxy-benzylcarbamoyl)-phenyl]-difluoro-methyl-phosphonic acid] | – | – | IC50 (Src SH2; [3]): ~50 µM
Cc1cc(C(=O)NCc2ccc(OCC3CCCCC3)c(C(N)=O)c2)cc(C)c1OP(=O)(O)O [Example 46, Phosphoric acid mono-[4-(3-carbamoyl-4-cyclohexyl-methoxy-benzylcarbamoyl)-2,6-dimethyl-phenyl] ester] | – | 12.5 | –
NC(=O)c1cc(CNC(=O)c2ccc(OP(=O)(O)O)c(Cl)c2)ccc1OCC1CCCCC1 [Example 47, Phosphoric acid mono-[4-(3-carbamoyl-4-cyclohexyl-methoxy-benzylcarbamoyl)-2-chloro-phenyl] ester] | – | ~20 | –
CNC(=O)c1cc(CNC(=O)c2ccc(OP(=O)(O)O)cc2)ccc1OCC1CCCCC1 [Example 48, Phosphoric acid mono-[4-(4-cyclohexylmethoxy-3-methylcarbamoyl-benzylcarbamoyl)-phenyl] ester] | – | ~30 | –
CC(=O)N[C@@H](Cc1ccc(OP(=O)(O)O)cc1)C(=O)NCc1ccc(OCC2CCCCC2)c(C(N)=O)c1 [Example 49, (S)-Phosphoric acid mono-{4-[2-acetylamino-2-(3-carbamoyl-4-cyclohexylmethoxy-benzylcarbamoyl)-ethyl]-phenyl} ester] | – | 8.5 | –
CC(=O)N[C@@H](Cc1ccc(OP(=O)(O)O)cc1)C(=O)NCc1ccc(OCc2cc(C)cc(C)c2)c(C(N)=O)c1 [Example 50, (S)-Phosphoric acid mono-(4-{2-acetylamino-2-[3-carbamoyl-4-(3,5-dimethyl-benzyloxy)-benzylcarbamoyl]-ethyl}-phenyl) ester] | – | 2.5 | –
CNC(=O)N[C@@H](Cc1ccc(OP(=O)(O)O)cc1)C(=O)NCc1ccc(OCC2CCCCC2)c(C(N)=O)c1 [Example 52] | – | 6.2 | –
CC(=O)N[C@@H](Cc1ccc(C(F)(F)P(=O)(O)O)cc1)C(=O)NCc1ccc(OCC2CCCCC2)c(C(N)=O)c1 [Example 53, (S)-{4-[2-Acetylamino-2-(3-carbamoyl-4-cyclohexyl-methoxy-benzylcarbamoyl)-ethyl]-phenyl}-difluoro-methyl-phosphonic acid] | – | 12.1 | –
CC(=O)N[C@@H](Cc1ccc(OP(=O)(O)O)cc1)C(=O)N[C@@H](CCC(=O)O)C(=O)NCCC12CC3CC(CC(C3)C1)C2 [Example 56, [S-(R*,R*)]-4-[2-Acetylamino-3-(4-phosphonooxy-phenyl)-propionylamino]-4-(2-adamantan-1-yl-ethylcarbamoyl)-butyric acid] | – | 3.8 | –
CC(=O)N[C@@H](Cc1ccc(OP(=O)(O)O)cc1)C(=O)NCc1ccc(OCC2CCCCC2)c(C(=O)NN)c1 [Example 71, (S)-Phosphoric acid mono-{4-[2-acetylamino-2-(4-cyclohexylmethoxy-3-hydrazinocarbonyl-benzylcarbamoyl)-ethyl]-phenyl} ester] | – | 18 | –
